Assay results published in patent publication US20240315989A1 (priority 2021, published 2024).
Where two headings read alike, the source gives them in different places.

Columns and labels:
[1] = test system: LPS-induced cytokine production; conditions: human peripheral blood; cited from earlier work
[2] = test system: LPS- or fecal slurry-induced inflammatory response; conditions: cited from earlier work; for Survival: wildtype mice, LPS, IRE1-mediated inflammation, fecal-induced peritonitis
COVID-19 [3] = test system: COVID-19
COVID-19 [4] = test system: COVID-19; remark: listed apart in the source
SARS-CoV-2 infection = experiment: Retrospective cohort (BJC Healthcare): antidepressant exposure and ED or hospital encounter within 30 days; format: in vivo, human; conditions: share of exposed outpatients with an encounter after a positive SARS-CoV-2 test
[5] = depending on formulation; cited from earlier work
[6] = From the text: All serious and non-serious adverse events were reported to study personnel as per local regulatory requirements. Reportable adverse events included serious adverse events, adverse events resulting in study medication discontinuation, and adverse events assessed as possibly related to study medication.
Because many patients who would ordinarily have been hospitalized were prevented from admission due to hospital over-capacity during peak waves, the composite endpoint addresses both hospitalization and a proxy for hospitalization, retention in a COVID-19 emergency hospital setting. This region of Brazil implemented hospital-like services in the emergency settings with 50-80 bed units providing services including multiday stays, oxygenation, and mechanical ventilation. […] Key secondary outcomes include viral clearance, time to clinical improvement, number of days with respiratory symptoms, time to hospitalization for any cause or due to COVID-19 progression, all-cause mortality and time to death from any causes, WHO clinical worsening scale score, days in hospital and on ventilator and adverse events, adverse reactions to the study medications, and the proportion of participants who are non-adherent with the study drugs.
The TOGETHER trial is the largest placebo-controlled trial of COVID-19 interventions in the world. It currently evaluates drugs for pre-hospitalization.

COVID-19 [7] = conditions: follow-up questionnaire
[8] = test system: HEK293T cell lines expressing ACE2 and TMPRSS2; conditions: FIG. 27; cited from earlier work
[9] = test system: COVID-19 (SARS-CoV-2 infection)
[10] = Bayesian, moderately optimistic prior
[11] = intent to treat analysis of 1649 participants
[12] = pooled, fluvoxamine vs blinded placebo
[13] = two randomized trials pooled, intent to treat
[14] = Together, N = 741, MedDRA body system
[15] = Intent to Treat Analysis, all randomized
[16] = per protocol, fluvoxamine group

COCCCC/C(=N\OCCN)c1ccc(C(F)(F)F)cc1.O=C(O)/C=C\C(=O)O [fluvoxamine, 5-methoxy-4′-(trifluoromethyl)valerophenone-(E)-O-(2-aminoethyl)oxime maleate (1:1)]
LPS-induced cytokine production by human cells [1]: reduce LPS-induced cytokine production
Effect on endotoxic shock-induced death ([2]; S1R KO animals): no significant effect
Cytokine levels ([2]; wildtype mice exposed to LPS or fecal slurry): reduced cytokine levels
Survival [2]: increased survival
Survival ([2]; listed as FLV): enhanced survival
Probability RR <1 (COVID-19 [3]; [10]): 97.2%
Probability RR ≤0.9 (COVID-19 [3]; [10]): 89.9%
Probability RR <1 (COVID-19 [3]; Bayesian, weakly neutral prior): 94.1%
Probability RR ≤0.9 (COVID-19 [3]; Bayesian, weakly neutral prior): 81.6%
Probability RR <1 (COVID-19 [3]; Frequentist analysis): 98.3%
Probability RR ≤0.9 (COVID-19 [3]; Frequentist analysis): 91.1%
Probability of at least a moderate effect (COVID-19 [3]; frequentist meta-analysis): 91.1%
Probability that fluvoxamine prevents hospitalization (COVID-19 [3]; frequentist meta-analysis): 98.3%
reduction in hospitalizations (COVID-19 [4]; [11]): Summary of the two randomized clinical trial data demonstrate a 25%
reduction in progression to severe disease with hypoxia ≤92%, ER visit >6 hour (with hypoxia), or hospitalizations (COVID-19 [4]; [11]): reduction in hospitalizations and 36% reduction in progression to severe
reduction in hospitalizations (COVID-19 [4]; intent to treat, vs placebo): 25%
Number needed to treat (COVID-19 [4]; pooled): approximately 20
Hospitalization, Absolute Risk Reduction (COVID-19 [4]; [12]): 3.1%
Mortality, Absolute Risk Reduction (COVID-19 [4]; [12]): 0.9%
Progression to Severe COVID-19, Absolute Risk Reduction (COVID-19 [4]; [12]): 5.4%
Hospitalization, % (COVID-19 [4]; [13]): 9.3%
Hospitalization, n/N (COVID-19 [4]; [13]): (76/821)
Mortality, % (COVID-19 [4]; [13]): 2.1%
Mortality, n/N (COVID-19 [4]; [13]): (17/821)
Progression to Severe COVID-19 (Hospitalization or ER Visit >6 hr or Hypoxia <92%), % (COVID-19 [4]; [13]): 9.6%
Progression to Severe COVID-19, n/N (COVID-19 [4]; [13]): (79/821)
ED or hospital encounter within 30 days, % (SARS-CoV-2 infection): 21.1%
half-life [5]: 9 to 28 h
Treatment emergent adverse event Grade 1, % ([6]; TOGETHER, fluvoxamine group): (3%)
Treatment emergent adverse event Grade 1, n/N ([6]; TOGETHER, fluvoxamine group): 20/741
Treatment emergent adverse event Grade 2, % ([6]; TOGETHER, fluvoxamine group): (10%)
Treatment emergent adverse event Grade 2, n/N ([6]; TOGETHER, fluvoxamine group): 72/741
Treatment emergent adverse event Grade 3, % ([6]; TOGETHER, fluvoxamine group): (5%)
Treatment emergent adverse event Grade 3, n/N ([6]; TOGETHER, fluvoxamine group): 38/741
Treatment emergent adverse event Grade 4, % ([6]; TOGETHER, fluvoxamine group): (3%)
Treatment emergent adverse event Grade 4, n/N ([6]; TOGETHER, fluvoxamine group): 21/741
Treatment emergent adverse event Grade 5, % ([6]; TOGETHER, fluvoxamine group): (2%)
Treatment emergent adverse event Grade 5, n/N ([6]; TOGETHER, fluvoxamine group): 18/741
Cardiac disorders, % of AEs [6, 14]: (0.6%)
Cardiac disorders, number of AEs [6, 14]: 1
Ear and labyrinth disorders, % of AEs [6, 14]: (0.6%)
Ear and labyrinth disorders, number of AEs [6, 14]: 1
Gastrointestinal disorders, % of AEs [6, 14]: (9.2%)
Gastrointestinal disorders, number of AEs [6, 14]: 16
Hepatobiliary disorders, % of AEs [6, 14]: (0%)
Hepatobiliary disorders, number of AEs [6, 14]: 0
Infections and infestations, % of AEs [6, 14]: (49%)
Infections and infestations, number of AEs [6, 14]: 85
Metabolism and nutrition disorders, % of AEs [6, 14]: (2.3%)
Metabolism and nutrition disorders, number of AEs [6, 14]: 4
Musculoskeletal and connective tissue disorders, % of AEs [6, 14]: (2.3%)
Musculoskeletal and connective tissue disorders, number of AEs [6, 14]: 4
Nervous system disorders, % of AEs [6, 14]: (1.7%)
Nervous system disorders, number of AEs [6, 14]: 3
Psychiatric disorders, % of AEs [6, 14]: (2.9%)
Psychiatric disorders, number of AEs [6, 14]: 5
Renal and urinary disorders, % of AEs [6, 14]: (0.6%)
Renal and urinary disorders, number of AEs [6, 14]: 1
Reproductive system and breast disorders, % of AEs [6, 14]: (0.6%)
Reproductive system and breast disorders, number of AEs [6, 14]: 1
Respiratory, thoracic and mediastinal disorders, % of AEs [6, 14]: (6.3%)
Respiratory, thoracic and mediastinal disorders, number of AEs [6, 14]: 11
Skin and subcutaneous tissue disorders, % of AEs [6, 14]: (0%)
Skin and subcutaneous tissue disorders, number of AEs [6, 14]: 0
Vascular disorders, % of AEs [6, 14]: (1.1%)
Vascular disorders, number of AEs [6, 14]: 2
N individual AEs ([6]; Together, N = 741 participants): 174
Participants who stopped owing to issues of tolerability, No. ([6]; of 741): 84
Ache in chest wall (ribs/sternum) present during the course of COVID-19, % (COVID-19 [7]): (33%)
Ache in chest wall (ribs/sternum) present within past 48 hours at follow-up, % (COVID-19 [7]): (11%)
Chest pain that worsens when taking a deep breath, present during the course of COVID-19, % (COVID-19 [7]): (37%)
Chest pain that worsens when taking a deep breath, present within past 48 hours at follow-up, % (COVID-19 [7]): (17%)
Chest pressure present during the course of COVID-19, % (COVID-19 [7]): (54%)
Chest pressure present within past 48 hours at time of follow-up, % (COVID-19 [7]): (17%)
Chest tightness present during the course of COVID-19, % (COVID-19 [7]): (54%)
Chest tightness present within past 48 hours at follow-up, % (COVID-19 [7]): (17%)
Pain deep inside the chest present during the course of COVID-19, % (COVID-19 [7]): (31%)
Pain deep inside the chest present within past 48 hours at follow-up, % (COVID-19 [7]): (9%)
Sharp chest pains present during the course of COVID-19, % (COVID-19 [7]): (33%)
Sharp chest pains present within past 48 hours at follow-up, % (COVID-19 [7]): (13%)
HEK293T-ACE2-TMPRSS2 cell IC50 [8]: 4.579 µg/mL
Hospitalization or extended emergency room visit due to COVID-19, HR [9]: 0.77
Patients with any interaction with a COVID-19 emergency setting, No. [9]: 180
Period of hospitalization, estimated treatment effect [9]: 1.23
Progression to severe COVID (FDA categorization), % of patients [9]: 10.1%
Proportion of primary outcome events, % [9]: 3.6%
Time on mechanical ventilator, estimated treatment effect [9]: 1.03
Primary outcome events (retention in COVID-19 emergency setting >6 h or transfer to tertiary hospital), No. of patients ([9]; 100 mg): 79
Proportion of primary outcome events, % ([9]; 24 h): 10.5%
Probability of superiority (event rate lower than placebo) ([9]; ITT population): 99.8%
Primary outcome events, % of patients ([9]; ITT, of 741, 28 days): 11%
Primary outcome events, n/N [9, 15]: (79/741)
Proportion of primary outcome events (retention in COVID-19 emergency setting >6 hours or transfer to tertiary hospital), % [9, 15]: 10.7%
Primary outcome events (retention in a COVID-19 emergency setting or transfer to tertiary hospital due to COVID-19), % ([9]; Intention-to-treat analysis, N 741): (11%)
Primary outcome events, n/N ([9]; Modified Intent to Treat Analysis, received ≥24 hours of study medicine): (78/740)
Primary outcome events (retention in a COVID-19 emergency setting or transfer to tertiary hospital due to COVID-19), % ([9]; Modified intention-to-treat analysis, N 740): (11%)
Primary outcome events, n/N ([9]; Per Protocol, received 80% of study medicine prior to any deterioration): (20/548)
All-cause hospitalization, n/N ([9]; TOGETHER, fluvoxamine group): 76/741
Death, intention to treat, % ([9]; TOGETHER, fluvoxamine group): (2%)
Death, intention to treat, n/N ([9]; TOGETHER, fluvoxamine group): 17/741
Hospitalized for COVID, n/N ([9]; TOGETHER, fluvoxamine group): 75/741
Probability that event rate was lower than placebo ([9]; mITT population): 99.7%
Time to death ([9]; median, fluvoxamine group): 17 days
Death, per protocol, % [9, 16]: (<1%)
Death, per protocol, n/N [9, 16]: 1/548
Deaths, No. ([9]; per-protocol population): one
Reduction in risk of death (mortality) ([9]; per-protocol, took at least 80% of pills): 91%
Deaths, No. ([9]; primary intention-to-treat analysis): 17
Number needed to treat ([9]; primary outcome): 20
Hospitalization or extended emergency room visit due to COVID-19, n_Fluvoxamine ([9]; subgroup Age <=50): 23
Hospitalization or extended emergency room visit due to COVID-19, HR ([9]; subgroup Age <=50, vs placebo): 0.57
Hospitalization or extended emergency room visit due to COVID-19, HR ([9]; subgroup Age >50, vs placebo): 0.67
Hospitalization or extended emergency room visit due to COVID-19, n_Fluvoxamine ([9]; subgroup BMI (Kg/m^2) >30): 44
Hospitalization or extended emergency room visit due to COVID-19, HR ([9]; subgroup BMI (Kg/m^2) >30, vs placebo): 0.64
Hospitalization or extended emergency room visit due to COVID-19, HR ([9]; subgroup Cardiovascular disease N, vs placebo): 0.67
Hospitalization or extended emergency room visit due to COVID-19, n_Fluvoxamine ([9]; subgroup Cardiovascular disease Y): 0
Hospitalization or extended emergency room visit due to COVID-19, n_Fluvoxamine ([9]; subgroup Chronic kidney disease N): 78
Hospitalization or extended emergency room visit due to COVID-19, n_Fluvoxamine ([9]; subgroup Chronic kidney disease Y): 1
Hospitalization or extended emergency room visit due to COVID-19, n_Fluvoxamine ([9]; subgroup Sex Female): 28
Hospitalization or extended emergency room visit due to COVID-19, n_Fluvoxamine ([9]; subgroup Sex Male): 51
Hospitalization or extended emergency room visit due to COVID-19, HR ([9]; subgroup Sex Male, vs placebo): 0.80
Hospitalization or extended emergency room visit due to COVID-19, HR ([9]; subgroup Smoking status Current, vs placebo): 0.80
Hospitalization or extended emergency room visit due to COVID-19, n_Fluvoxamine ([9]; subgroup Smoking status Former): 10
Hospitalization or extended emergency room visit due to COVID-19, HR ([9]; subgroup Smoking status Former, vs placebo): 0.46
Hospitalization or extended emergency room visit due to COVID-19, n_Fluvoxamine ([9]; subgroup Time from onset of symptoms 0-3 days): 30
Time to death, estimated treatment effect ([9]; unadjusted hazard ratio, fluvoxamine vs placebo): 0.80
Death, intention to treat, estimated treatment effect ([9]; unadjusted odds ratio, fluvoxamine vs placebo): 0.69
